This note sets out measurements from ChEMBL document CHEMBL3046861, “QSAR STUDIES ON ADENOSINE KINASE INHIBITORS” (Med Chem Res, 2004).

The target of this experiment is Adenosine kinase (Homo sapiens) (UniProt P55263).

Structures are written as SMILES.

Chain of Adenosine kinase (Homo sapiens) (P55263 2-362 limits assumed): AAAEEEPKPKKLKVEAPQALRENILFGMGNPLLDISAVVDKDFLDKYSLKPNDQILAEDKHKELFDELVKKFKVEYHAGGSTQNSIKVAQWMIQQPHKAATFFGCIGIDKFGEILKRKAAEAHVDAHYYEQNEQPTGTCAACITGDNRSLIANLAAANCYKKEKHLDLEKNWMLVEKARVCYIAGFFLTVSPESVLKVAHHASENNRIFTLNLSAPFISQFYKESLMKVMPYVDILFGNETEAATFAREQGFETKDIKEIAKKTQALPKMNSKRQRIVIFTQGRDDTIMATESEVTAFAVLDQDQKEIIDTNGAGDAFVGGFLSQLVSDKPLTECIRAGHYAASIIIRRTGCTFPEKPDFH
Description: Inhibition of adenosine kinase (unknown origin)

Turning to `Cc1cn([C@@H]2O[C@H](C)[C@@H](O)[C@H]2O)c2ncnc(Cl)c12`, the logIC50 was -0.272. As for `CSc1ncnc2c1c(I)cn2[C@@H]1O[C@H](C)[C@@H](O)[C@H]1O`, the figure is -1.35; as for `CC[C@H]1O[C@@H](n2cc(I)c3c(N)ncnc32)[C@H](O)[C@@H]1O`, -1.22; as for `[N-]=[N+]=NC[C@H]1O[C@@H](n2cc(I)c3c(N)ncnc32)[C@H](O)[C@@H]1O`, -1.46. For `C[C@H]1O[C@@H](n2cc(I)c3c(Cl)ncnc32)[C@H](O)[C@@H]1O` the value was -2.52; for `NC[C@H]1O[C@@H](n2cc(I)c3c(Cl)ncnc32)[C@H](O)[C@@H]1O`, -4. For `NC[C@H]1O[C@@H](n2cc(Br)c3c(N)ncnc32)[C@H](O)[C@@H]1O` the value was -3.7. With `C[C@H]1O[C@@H](n2cc(C#N)c3c(N)ncnc32)[C@H](O)[C@@H]1O`, the logIC50 is -0.509.

With `CSc1cn([C@@H]2O[C@H](C)[C@@H](O)[C@H]2O)c2ncnc(Cl)c12`, the logIC50 was -1.16. Consider `OC[C@H]1O[C@@H](n2cc(I)c3c(Cl)ncnc32)[C@H](O)[C@@H]1O`, for which the logIC50 was -1.62.

With `C=C[C@H]1O[C@@H](n2cc(I)c3c(N)ncnc32)[C@H](O)[C@@H]1O`, the logIC50 is -1. As for `NC[C@H]1O[C@@H](n2cc(I)c3c(N)ncnc32)[C@H](O)[C@@H]1O`, the figure is -3.22; as for `[N-]=[N+]=NC[C@H]1O[C@@H](n2cc(I)c3c(Cl)ncnc32)[C@H](O)[C@@H]1O`, -2.05; as for `Nc1ncnc2c1c(Br)cn2[C@@H]1O[C@H](CO)[C@@H](O)[C@H]1O`, -0.921. For `[N-]=[N+]=NC[C@H]1O[C@@H](n2cc(Br)c3c(Cl)ncnc32)[C@H](O)[C@@H]1O` the value was -1; for `CSc1cn([C@@H]2O[C@H](C)[C@@H](O)[C@H]2O)c2ncnc(N)c12`, 0.13; for `COC[C@H]1O[C@@H](n2cc(I)c3c(N)ncnc32)[C@H](O)[C@@H]1O`, 0.0792.

Consider `Nc1ncnc2c1c(Cl)cn2[C@@H]1O[C@H](CO)[C@@H](O)[C@H]1O`, for which the logIC50 is -0.678. As for `Nc1ncnc2c1c(Br)cn2[C@@H]1OC[C@@H](O)[C@H]1O`, the figure is -0.301; as for `C[C@H]1O[C@@H](n2cc(I)c3c(S)ncnc32)[C@H](O)[C@@H]1O`, 0.813.

With `C[C@H]1O[C@@H](n2cc(Br)c3c(Cl)ncnc32)[C@H](O)[C@@H]1O`, the logIC50 was -1.3. `CNc1ncnc2c1c(I)cn2[C@@H]1O[C@H](C)[C@@H](O)[C@H]1O`: the logIC50 was 0.0792. As for `[N-]=[N+]=NC[C@H]1O[C@@H](n2cc(Br)c3c(N)ncnc32)[C@H](O)[C@@H]1O`, the logIC50 was -1.2.
